This note sets out measurements from ChEMBL document CHEMBL4118084, “Chemical Approaches to Intervening in Ubiquitin Specific Protease 7 (USP7) Function for Oncology and Immune Oncology Therapies” (J Med Chem, 2018).

Assay [1] in a line: Inhibition of mouse CD4+/CD25+ Treg cells-mediated suppression of CD3-stimulated T-effector cell proliferation after 72 hrs by CellTrace violet dye-based assay. It is filed as functional.
For assay [2], the target named is T1, Ubiquitin carboxyl-terminal hydrolase 7 (Homo sapiens, UniProt Q93009). Put plainly: Inhibition of USP7 (unknown origin).
T1 sequence (Q93009 whole entry): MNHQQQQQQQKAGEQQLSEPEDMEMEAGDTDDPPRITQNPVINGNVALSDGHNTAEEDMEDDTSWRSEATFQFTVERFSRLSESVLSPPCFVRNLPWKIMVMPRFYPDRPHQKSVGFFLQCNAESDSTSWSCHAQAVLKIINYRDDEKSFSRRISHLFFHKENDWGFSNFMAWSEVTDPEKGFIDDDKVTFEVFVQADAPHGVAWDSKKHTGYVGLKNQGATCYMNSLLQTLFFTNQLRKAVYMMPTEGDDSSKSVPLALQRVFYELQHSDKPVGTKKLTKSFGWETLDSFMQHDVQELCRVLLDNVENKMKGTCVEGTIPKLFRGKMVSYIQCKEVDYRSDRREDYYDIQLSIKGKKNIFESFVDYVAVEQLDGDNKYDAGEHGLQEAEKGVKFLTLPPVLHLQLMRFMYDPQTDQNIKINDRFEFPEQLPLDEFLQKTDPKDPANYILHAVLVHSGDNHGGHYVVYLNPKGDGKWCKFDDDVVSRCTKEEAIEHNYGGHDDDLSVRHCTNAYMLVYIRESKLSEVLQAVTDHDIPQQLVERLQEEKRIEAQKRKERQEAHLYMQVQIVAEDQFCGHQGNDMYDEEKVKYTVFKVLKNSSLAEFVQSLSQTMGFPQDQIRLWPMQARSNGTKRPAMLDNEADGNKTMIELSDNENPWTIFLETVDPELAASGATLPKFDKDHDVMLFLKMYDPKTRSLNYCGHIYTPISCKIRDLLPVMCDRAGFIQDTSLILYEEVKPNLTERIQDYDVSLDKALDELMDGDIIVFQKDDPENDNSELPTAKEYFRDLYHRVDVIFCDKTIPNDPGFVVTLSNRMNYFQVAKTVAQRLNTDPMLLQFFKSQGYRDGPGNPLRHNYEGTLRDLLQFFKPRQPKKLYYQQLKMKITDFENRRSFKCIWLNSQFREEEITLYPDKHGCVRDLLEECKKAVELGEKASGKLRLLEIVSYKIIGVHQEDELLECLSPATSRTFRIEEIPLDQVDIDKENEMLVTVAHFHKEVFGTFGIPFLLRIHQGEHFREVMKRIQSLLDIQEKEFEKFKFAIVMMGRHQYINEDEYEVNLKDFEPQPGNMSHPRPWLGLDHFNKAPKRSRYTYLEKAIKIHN
Assay [3] deals with T1, Ubiquitin carboxyl-terminal hydrolase 7. Put plainly: Inhibition of full-length native C-terminal USP7 (unknown origin) using Ub-Rho110 as substrate after 1 hr by fluorescence assay.
For assay [4] the target is unchanged. Put plainly: Inhibition of USP7 in human SJSA cells assessed as increase in ubiquitinated MDM2 level after 20 hrs in presence of MG132 by MSD assay. Type of assay: cell-based.
The target is the same in assay [5]. Nature of the assay: Inhibition of USP7 (unknown origin) using Ub-Rh110 as substrate by fluorescence based assay.
For assay [6] the target is unchanged. Put plainly: Inhibition of human recombinant 6His-tagged USP7 using Ub-Rh110 as substrate preincubated for 30 mins followed by substrate addition measured after 180 mins by fluorometric analysis.
For assay [7] the target is unchanged. Nature of the assay: Inhibition of full-length recombinant USP7 (unknown origin) expressed in Sf9 cells using Ub-EKL as substrate preincubated for 30 mins followed by substrate addition by fluorescence based assay.
Assay [8] concerns the target T2, Ubiquitin carboxyl-terminal hydrolase 2 (Homo sapiens, UniProt O75604).
T2 sequence (O75604 whole entry): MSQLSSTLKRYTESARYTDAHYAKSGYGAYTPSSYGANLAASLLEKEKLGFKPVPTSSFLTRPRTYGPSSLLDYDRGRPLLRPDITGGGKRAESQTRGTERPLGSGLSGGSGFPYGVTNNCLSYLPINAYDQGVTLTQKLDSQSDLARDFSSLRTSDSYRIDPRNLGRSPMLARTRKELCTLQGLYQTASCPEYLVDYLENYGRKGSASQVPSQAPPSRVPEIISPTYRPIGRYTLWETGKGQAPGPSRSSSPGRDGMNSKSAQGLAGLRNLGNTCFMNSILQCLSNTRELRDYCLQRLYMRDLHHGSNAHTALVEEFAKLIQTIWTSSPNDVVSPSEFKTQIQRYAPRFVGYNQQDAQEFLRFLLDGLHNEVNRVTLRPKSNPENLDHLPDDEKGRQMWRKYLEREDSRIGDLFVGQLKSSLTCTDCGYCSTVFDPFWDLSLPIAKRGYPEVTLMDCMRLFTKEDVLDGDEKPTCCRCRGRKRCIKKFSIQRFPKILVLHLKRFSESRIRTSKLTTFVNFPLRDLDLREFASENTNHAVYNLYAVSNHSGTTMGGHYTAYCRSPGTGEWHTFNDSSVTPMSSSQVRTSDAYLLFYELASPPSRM
Put plainly: Inhibition of USP2 (unknown origin).

Assay [9] has as its target Ubiquitin carboxyl-terminal hydrolase 7 (Homo sapiens, UniProt Q93009, C223A). Nature of the assay: Inhibition of human full-length wild-type His-tagged catalytic USP7 […] expressed in baculovirus infected Sf9 cells using Ub-AMC as substrate preincubated for 30 mins followed by substrate addition measured after 1 hrs by fluorometric analysis.
In assay [10] the target is T1, Ubiquitin carboxyl-terminal hydrolase 7. Nature of the assay: Inhibition of USP7 (unknown origin) using human N-terminal GST-tagged UBA52 as substrate preincubated for 10 mins followed by substrate addition measured after 45 mins by coomassie brilliant blue staining-based SDS-PAGE analysis.
Assay [11] shares this target. Nature of the assay: Inhibition of full-length USP7 (unknown origin) using Ub-AMC as substrate preincubated for 20 mins followed by substrate addition measured after 50 mins.
The target of assay [12] is T3, Ubiquitin carboxyl-terminal hydrolase 47 (Homo sapiens, UniProt Q96K76).
T3 sequence (Q96K76 whole entry): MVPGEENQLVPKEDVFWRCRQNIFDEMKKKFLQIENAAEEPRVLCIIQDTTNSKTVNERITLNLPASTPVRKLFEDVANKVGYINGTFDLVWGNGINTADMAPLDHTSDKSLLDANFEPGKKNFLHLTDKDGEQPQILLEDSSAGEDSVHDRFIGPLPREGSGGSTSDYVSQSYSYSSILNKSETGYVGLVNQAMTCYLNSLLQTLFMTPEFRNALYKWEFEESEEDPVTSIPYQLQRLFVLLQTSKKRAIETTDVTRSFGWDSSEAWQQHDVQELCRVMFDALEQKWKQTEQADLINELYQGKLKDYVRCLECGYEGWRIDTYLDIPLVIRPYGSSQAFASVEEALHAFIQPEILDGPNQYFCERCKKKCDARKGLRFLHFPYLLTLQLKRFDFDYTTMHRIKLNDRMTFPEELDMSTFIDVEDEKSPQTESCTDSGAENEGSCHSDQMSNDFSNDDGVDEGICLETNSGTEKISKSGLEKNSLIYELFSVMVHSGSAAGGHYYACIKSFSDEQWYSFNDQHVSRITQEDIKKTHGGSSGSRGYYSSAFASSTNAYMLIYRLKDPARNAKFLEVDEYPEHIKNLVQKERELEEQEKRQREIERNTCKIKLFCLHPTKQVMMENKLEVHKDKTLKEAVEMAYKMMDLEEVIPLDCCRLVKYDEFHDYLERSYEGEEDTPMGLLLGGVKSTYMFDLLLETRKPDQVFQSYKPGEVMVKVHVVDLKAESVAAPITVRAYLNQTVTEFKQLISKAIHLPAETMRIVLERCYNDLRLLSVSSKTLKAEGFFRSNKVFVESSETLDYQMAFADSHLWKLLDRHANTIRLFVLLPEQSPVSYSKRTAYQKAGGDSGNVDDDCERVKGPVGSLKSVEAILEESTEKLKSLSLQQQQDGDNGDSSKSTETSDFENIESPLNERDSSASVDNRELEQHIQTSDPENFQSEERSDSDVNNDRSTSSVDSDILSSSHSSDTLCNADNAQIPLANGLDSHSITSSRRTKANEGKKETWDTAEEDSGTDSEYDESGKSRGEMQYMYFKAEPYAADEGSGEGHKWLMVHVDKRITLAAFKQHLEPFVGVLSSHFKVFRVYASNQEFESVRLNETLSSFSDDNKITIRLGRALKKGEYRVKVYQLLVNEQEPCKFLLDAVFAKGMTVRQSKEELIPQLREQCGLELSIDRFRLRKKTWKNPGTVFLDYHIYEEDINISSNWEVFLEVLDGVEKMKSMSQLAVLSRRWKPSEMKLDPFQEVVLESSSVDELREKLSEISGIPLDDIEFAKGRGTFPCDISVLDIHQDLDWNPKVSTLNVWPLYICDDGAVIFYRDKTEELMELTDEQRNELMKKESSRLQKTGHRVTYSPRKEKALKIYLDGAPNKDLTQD
Put plainly: Inhibition of USP47 (unknown origin) using Ub-AMC as substrate preincubated for 20 mins followed by substrate addition measured after 50 mins.

SMILES strings stand for the structures.

Chain of Ubiquitin carboxyl-terminal hydrolase 7 (Homo sapiens, UniProt Q93009, C223A) (Q93009 whole entry C223A): as the sequence (Q93009 whole entry) above, with C223A counted along it

For orientation: IC50 means the point on the concentration scale where inhibition reaches its midpoint. `COC(=O)/C=C/CNC(=O)c1cc([N+](=O)[O-])c(Sc2cccc(Cl)c2Cl)s1` yielded an IC50 in assay [1] of 0.58 µM.
`CC1=CS(=O)(=O)c2cc(NC(=O)c3cc([N+](=O)[O-])c(Sc4c(Cl)cncc4Cl)s3)ccc21` gave an IC50 in [2] of 0.17 µM.
As to `CCc1c(-c2ccc3c(cnn3C)c2)cnc(N)c1-c1ccc(O)cc1`, the values for the IC50 in assay [3] and in [4] were over 63.3 µM and 2 µM, respectively.
With `CCCc1cc2c(=O)n(C(C)C3(O)CCN(C(=O)CC(C)c4ccccc4)CC3)cnc2s1` (centres undefined), the IC50 in assay [5] is 0.3 to 1 µM.
Turning to `O=C(Nc1ccc2c(c1)S(=O)(=O)C=C2)c1cc([N+](=O)[O-])c(Sc2c(Cl)cncc2Cl)s1`, in [2], half-maximal inhibition (IC50) required 0.1 µM.
On to `C[C@@]12CCCc3coc(c31)C(=O)c1cc3c(=O)c4c(c(=O)c3cc12)c1c(=O)c2cc3c(cc2c(=O)c1c1c(=O)c2cc5c(cc2c(=O)c41)[C@]1(C)CCCc2coc(c21)C5=O)[C@]1(C)CCCc2coc(c21)C3=O`, for which the IC50 in assay [6] was found to be 0.75 µM.
Turning to `CC(=O)c1cc([N+](=O)[O-])c(Sc2ccccc2)s1`, the IC50 in assay [7] was over 50 µM.
`CC1CS(=O)(=O)c2cc(NC(=O)c3cc([N+](=O)[O-])c(Sc4c(Cl)cncc4Cl)s3)ccc21` (centres undefined) gave an IC50 in [2] of 0.075 µM.
Same read-out and setting: the value for `O=C(Nc1ccc2c(c1)S(=O)(=O)CC2)c1cc([N+](=O)[O-])c(Sc2c(Cl)cncc2Cl)s1` was 0.13 µM.
Consider `C[C@@]12CCCc3coc(c31)C(=O)c1cc3c(cc12)C(=O)C=CC3=O` [XESTOQUINONE], for which the IC50 in assay [6] was determined as 0.13 µM.
On to `COC(=O)[C@]12CCC(C)(C)C[C@H]1[C@H]1C(=O)C=C3[C@@]4(C)C=C(C#N)C(=O)C(C)(C)[C@@H]4CC[C@@]3(C)[C@]1(C)CC2` [BARDOXOLONE METHYL], for which the midpoint of inhibition in assay [8], the IC50, lay at 22 µM.
For `CN(CCCNC(=O)c1ccc2nc3c(c(Cl)c2c1)CCCC3)Cc1ccccc1`, the IC50 in assay [9] worked out at 28 µM.
The compound `CN(C)CCCNC1CS(=O)(=O)c2cc(NC(=O)c3cc([N+](=O)[O-])c(Sc4c(Cl)cncc4Cl)s3)ccc21` (centres undefined) had an IC50 in assay [2] of 0.2 µM.
`COC(=O)[C@]12CCC(C)(C)C[C@H]1[C@H]1C(=O)C=C3[C@@]4(C)CC(C#N)C(=O)C(C)(C)[C@@H]4CC[C@@]3(C)[C@]1(C)CC2` (some centres undefined) had an IC50 in assay [10] of 25 µM.
As for `CC(CC(=O)N1CCC(O)(C(C)n2cnn3cccc3c2=O)CC1)c1ccccc1` (centres undefined), the IC50 in assay [5] was 0.2 to 1 µM.
Take `C[C@H]1[C@H](C)CC[C@]2(C(=O)O)CC[C@]3(C)C(=CC[C@@H]4[C@@]5(C)CC[C@H](O)C(C)(C)[C@@H]5CC[C@]43C)[C@H]12` [URSOLIC ACID]: the IC50 turned out to be 7 µM in [11] and 26 µM in assay [12].
For `CC(CC(=O)N1CCC(O)(C(C)n2cnc3c(cnn3C)c2=O)CC1)c1ccccc1` (centres undefined), in assay [5], the IC50 is 0.2 to 1 µM.
`CC(=O)c1cnc(Sc2c(Cl)cncc2Cl)s1` had an IC50 in assay [2] of 22.6 µM.
`O=C(Nc1cccc(CN2CCCC2)c1)c1ccc2nc3c(c(Cl)c2c1)CCCC3` registered a half-maximal inhibitory concentration (IC50) in assay [2] of 8.2 µM.
`CC(=O)Nc1ccc2c(=O)n(C(C)C3(O)CCN(C(=O)CC(C)c4ccccc4)CC3)cnc2c1` (centres undefined): the IC50 in [5] was under 0.2 µM.
As to `C[C@@]12CCCc3coc(c31)C(=O)c1cc3c(cc12)C(=O)C=C(C1=CC(=O)c2cc4c(cc2C1=O)C(=O)c1occ2c1[C@@]4(C)CCC2)C3=O`, the IC50 in assay [6] was 0.49 µM.
`CC(CC(=O)N1CCC(O)(C(C)n2cnc3cc[nH]c3c2=O)CC1)c1ccccc1` (centres undefined): the IC50 in assay [5] is under 0.5 µM.
